Earlier results in patent US20260344672A1, “CROP ENHANCEMENT” (SYNGENTA CROP PROTECTION AG, priority 2023, published 2026).

System: plant
Details: reported in the literature

Row | SMILES | early flowering and grain maturation | leaf area and plant height | photosynthetic capacity (plant greenness) | root system and root hair development | tiller number and productivity | plant health, tolerance to environmental stresses
1 | N#Cc1nn(-c2c(Cl)cc(C(F)(F)F)cc2Cl)c(N)c1[S+]([O-])C(F)(F)F (stereo not drawn) [fipronil] | stimulate early flowering and grain maturation | increase leaf area and plant height | increase photosynthetic capacity (plant greenness) | enhance overall root system and root hair development | increase tiller number and productivity | 
2 | COC(=O)N(OC)c1ccccc1COc1ccn(-c2ccc(Cl)cc2)n1 [pyraclostrobin] |  |  |  |  |  | improve plant health e.g. to improve the tolerance to environmental stresses
